Results reported in patent publication US20080146555A1, “Uses of Kinase Inhibitors and Compositions Thereof” (GPC Biotech, Inc, priority 2004, published 2008).
Where a name gives a salt, the structure may show the parent alone. Read-outs that look alike come from different tables or passages of the source.

Tests used:
PC3 xenograft = PC3 xenograft tumor model; design: species or system mice; conditions: mouse, in vivo
Method: (§1) Drugs. Compounds of the invention were synthesized and prepared for i.v. administration in a biocompatible vehicle. CPT-11 (Camptosar®, Pharmacia) was obtained as the pharmaceutical drug and was prepared in 5% dextrose-water (D5W). All preparations were made fresh weekly and injection volumes were adjusted to body weight (0.2 ml/20 g mouse).
(§2) Mice/Husbandry. Female nu/nu mice were obtained from Charles River, housed in static microisolators, and provided ad libitum with water and an irradiated standard rodent diet (Purina Pico-Lab Rodent Diet 20).
(§3) Standard Protocol. […] Animals were initially monitored twice weekly for tumor growth and then daily as the implants approached the desired size of approximately 100 mm^3. When the tumors grew to between 62-221 mg in calculated tumor weight, the animals were pair-matched into appropriate experimental treatment groups (8-10 animals/group) and treatment with test compounds was initiated. […] Tumor weights were calculated and body weights were taken twice weekly and animals were observed frequently for adverse drug effects. […]
(§4) Tumors were measured by determining the length and width of the tumor with a digital caliper. […]
(§5) Log cell kill (LCK) is a calculation that determines the percentage of tumor cells that are killed after the initiation of treatment and can be used as a quantitative measure of efficacy: […]

A2780 xenograft = A2780 xenograft tumor model; design: species or system mice; conditions: mouse, in vivo
Method: as §1, §2, §3, §4, §5

Casein Kinase 1 (yeast) = biological target: T1, Casein Kinase 1 (yeast) (Schizosaccharomyces pombe, UniProt P40233); experiment: CK1-Yeast kinase assay (A37 assay); type: biochemical, S. pombe
T1 construct: purchased Upstate 14-112
Method: • 1. Assay Dilution Buffer I (ADBI, Catalog #20-108): 20 mM MOPS, pH 7.2, 25 mM β-glycerol • phosphate, 5 mM EGTA, 1 mM sodium orthovanadate, 1 mM dithiothreitol. • 2. Casein Kinase 1, active: Dilute to 10-50 ng/μl. Use 10 μl (100-500 ng) per assay point. • 3. Casein Kinase 1 Substrate Peptide (Catalog #12-423): Prepare a 1 mM sock in ADBI. Use 10 μl per assay for a final concentration of 250 μM per assay point. • 4. [γ-^32P]ATP: Stock 1 mCi/100 μl (3000 Ci/mmol, obtained from Perkin Elmer, Cat. # BLU002A). Make 10 μl aliquots (100 μCi/vial). Before starting the assay, dilute an aliquot with 90 μl of 500 μM cold ATP and 75 mM magnesium chloride in ADBI.
• 1. Add 10 μl of ADBI to a microcentrifuge tube. • 2. Add 10 μl of Casein Kinase 1, active (100-500 ng). • 3. Add 10 μl (250 μM) Casein Kinase 1 Substrate Peptide. • 4. Add 10 μl of diluted [γ-^32P]ATP mixture. • 5. Incubate for 10 minutes at in a shaking incubator at 30° C. • 6. Transfer 25 μl onto the center of a 2 cm×2 cm P81 paper. • 7. Wash the assay squares three times with 0.75% phosphoric acid. • 8. Wash the assay squares once with acetone. • 9. Transfer the assay squares to a scintillation vial and add 5 ml scintillation cocktail. • 10. Read in scintillation counter. Compare cpm of enzyme samples to cpm of control samples that contain no enzyme (background control).

[1] = MTD/toxicity study in rats; type: in vivo; conditions: 50-80 mg/kg i/v, QDx5/2/5 schedule
Method: A similar scheme can also be employed in experimental rats and other animals. For example, to determine MTD in rats, 50-80 mg/kg of A37 was dosed i/v in a QDx5/2/5 schedule.

normal cells = experiment: Activity on normal cells; type: cell-based
[2] = Maximum tolerated dose in mice; conditions: mouse, in vivo, intravenous
Method: Determination of maximum tolerated dose (MTD). Mice at 8 weeks of age were pair-matched into groups of 5-8 animals and preliminary toxicity studies were performed with unknown test compounds. Animals were treated i.v. daily for 10 consecutive days with test compound and were weighed twice weekly. Mice were examined frequently for clinical signs of any adverse drug-related effects. Acceptable toxicity for anti-cancer drugs in mice is defined by the NCl as no mean group weight loss of over 20% and not more than 10% toxic death in treated animals.

CK1 delta = biological target: T2, CK1 delta (Homo sapiens, UniProt P48730); experiment: CK1-Delta kinase assay (B16 assay); type: biochemical
T2 construct: purchased Upstate 14-520
T2 sequence (P48730 whole entry): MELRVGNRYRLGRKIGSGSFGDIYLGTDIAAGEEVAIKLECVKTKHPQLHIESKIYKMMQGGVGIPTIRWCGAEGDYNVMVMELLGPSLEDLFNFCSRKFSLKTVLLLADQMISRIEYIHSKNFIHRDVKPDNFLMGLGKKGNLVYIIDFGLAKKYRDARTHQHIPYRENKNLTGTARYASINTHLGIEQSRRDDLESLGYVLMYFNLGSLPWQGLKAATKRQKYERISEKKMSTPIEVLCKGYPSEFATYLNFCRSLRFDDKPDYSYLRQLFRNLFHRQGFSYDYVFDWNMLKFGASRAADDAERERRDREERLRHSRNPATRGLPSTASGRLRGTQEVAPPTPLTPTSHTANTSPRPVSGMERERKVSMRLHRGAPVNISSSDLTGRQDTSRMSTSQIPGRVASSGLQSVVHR

T1 sequence (P40233 1-298 limits assumed): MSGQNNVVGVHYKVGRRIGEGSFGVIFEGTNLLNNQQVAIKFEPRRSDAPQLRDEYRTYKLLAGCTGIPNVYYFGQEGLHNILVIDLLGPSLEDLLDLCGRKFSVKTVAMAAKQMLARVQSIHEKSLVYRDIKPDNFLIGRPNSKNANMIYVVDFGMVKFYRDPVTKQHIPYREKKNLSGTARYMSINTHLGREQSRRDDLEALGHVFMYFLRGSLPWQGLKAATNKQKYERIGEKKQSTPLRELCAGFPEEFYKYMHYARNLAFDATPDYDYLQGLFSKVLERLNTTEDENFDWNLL

CC(C)N1CCN(C(=O)COc2ccc(-c3n[nH]c4c3C(=O)c3c(NC(=O)NN5CCOCC5)cccc3-4)cc2)CC1 [Compound A37]
efficacy in PC3 xenograft tumor model (PC3 xenograft): high efficacy | efficacy in A2780 xenograft tumor model (A2780 xenograft): high efficacy | IC50 (Casein Kinase 1 (yeast); CK1 IC50 (A37), kinase panel, 10 μM ATP): < 3 nM | IC50 (Casein Kinase 1 (yeast); CSNK1A1 (CK1) Inhibition (IC50), A37, S. pombe CK1 (*)): < 5 nM | cardiotoxicity [1]: did not induce cardiotoxicity

COCCN1CCN(Cc2ccc(-c3n[nH]c4c3C(=O)c3c(NC(=O)NN5CCOCC5)cccc3-4)cc2)CC1 [Compound B16, N-[3-(4-{[4-(2-methoxyethyl)piperazinyl]methyl}phenyl)-4-oxoindeno[2,3-d]pyrazol-5-yl](morpholin-4-ylamino)carboxamide dihydrochloride]
IC50 (normal cells): 10900 nM | MTD ([2]; CD-1 mice, read-out: MTD, 5/2/5 dose): 40 mg/kg | MTD at 5 days ([2]; nu/nu mice): ~100 mg/kg | MTD ([2]; nu/nu mice, read-out: MTD, single dose): ~120 mg/kg | IC50 (CK1 delta; CK1 delta, read-out: CSNK1A1 (CK1) Inhibition (IC50), B16): < 50 nM | IC50 (CK1 delta; kinase panel, read-out: CK1 IC50 (B16)): < 100 nM
